# In patent US7713994B2 (Wyeth LLC, priority 2005, dated 2010):
# Columns and labels:
# IGF1-receptor kinase = target: T1, IGF1-receptor kinase (Homo sapiens, UniProt P08069); experiment: IGF1-R kinase assay (96-well FRET Lance); type: biochemical; settings: for IC50: 100 micromolar ATP, read-out: Igfr ic50; for inhibition at 10 µM: read-out: Igfr % Inhibition at 10 uM
# T1 construct: Purified GST-IGFR; purified Bis-IGFR and Tris-IGFR; fused on or other part: GST with a thrombin cleavage site, removed in the Bis-IGFR and Tris-IGFR forms
# Text: • TITLE: 96-well assay for inhibitors of IGF1-receptor kinase activity • SHORT TITLE: IGF1-R kinase assay • PURPOSE: Identify inhibitors of IGF-1 receptor kinase activity • MATERIALS AND METHODS: Overview: This is a 96-well FRET (Lance) tyrosine kinase assay. • Materials: • Purified GST-IGFR; purified Bis-IGFR and Tris-IGFR; expressed in ExpresSF insect cells. Bis and Tris IGFR are made by phosphorylating the IGFR in the presence of ATP and Mg2+, followed by thrombin cleavage to remove the GST-thrombin cleavage site, and purification by HPLC. The Bis and tris IGFR are phosphorylated on two (bis) or all three tyrosines (tris) in the activation loop. • Biotinylated peptide with a sequence corresponding to the sequence surrounding the autophosphorylation sites in IGF1-R Biotin-NH2-[…]-OH (Anaspec) • Europium-conjugated phosphotyrosine antibody (PT66) (Perkin-Elmer). • Surelight APC (Perkin-elmer) • Plates: 96-well Assay plates (polypropylene plates, natural color) • 96-well-Lance plates (Microfluor 2 black plates; Cat # 7205; Thermolabsystems. • ATP: (Amersham Pharmacia Cat # 27-2056-01), 100 mM stock. • IGFR Lance Protocol (96-well format) • Procedure: • Reagents: • Kinase Buffer (10×): • 0.5 M Hepes, pH 7.5 rt • 0.1 M MgCl2 • Quench Buffer (to be added straight, 1:1, to r×n mix): • 50 mM Hepes, pH 7.5 rt • 50 mM EDTA • Lance Detection Buffer: • 20 mM Tris-HCl, pH 7.5 rt • 0.15 M NaCl-150 • 150 ug/ml BSA (Sigma Cat# A-7284) • Eu-labeled phosphotyrosine antibody PT66 (Perkin-Elmer): 1:4000 dilution of 200 μg/ml stock • Streptavidin-APC (Perkin Elmer): 1/250 (4 microgram/ml final) • ATP (Amersham Pharmacia cat #27-2056-01) 100 mM stock: Dilute to 1 mM (10×) in water. […] Transfer 12.5[…] of the kinase reaction to the antibody detection plate. Allow antibody to react for 1 h at rt in the dark. Then read in Victor with an excitation filter of 340 nm and an emission filter of 665 nm. • Compound additions: • When Example compounds are tested, they are added from a 10% DMSO/50 mM Hepes (pH 7.5) 10× stock. 5 microliters of compound in this buffer are added to the enzyme-peptide-buffer mix. After 10′ incubation at room temperature, ATP is added to start the reaction. A no ATP background control is included in the assay. • […] OF RESULTS: Data are analyzed as follows: % Inhibition={[Sample cpm−Bkg cpm]/[No cmpd cpm−Bkg cpm]}×100%. The biological activity of representative Examples of the invention is reported in Table VII as: 0.2 µM≦x≦10 µM or % inhibition@10 µM.
# cyclin D1/cdk 4 enzyme = target: T2, cyclin D1/cdk 4 enzyme (Homo sapiens, UniProt P11802); experiment: CDK4 ELISA kinase assay (phospho-Rb ser 795 detection); type: biochemical; settings: In Vitro Enzyme Assays, 200 μM ATP, read-out: CDK4 IC50
# T2 construct: made in house; host or cells: Sf9 insect cells, recombinant baculovirus
# In short: (§1)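 Screening was done at 10 ug/ml compound. Each partially purified cyclin/CDK complex, produced in baculovirus-infected Sf9 cells, phosphorylated a coated GST-Rb C-terminal fragment with 200 μM ATP, and Ser795 phosphorylation was quantified by HRP-ELISA at 450 nm.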
# cyclin E/CDK2 enzyme = target: T3, cyclin E/CDK2 enzyme (Homo sapiens, UniProt P24941); experiment: CDK2 ELISA kinase assay (phospho-Rb ser 795 detection); type: biochemical; settings: In Vitro Enzyme Assays, read-out: CDK2 IC50
# T3 construct: made in house; host or cells: Sf9 insect cells, recombinant baculovirus
# In short: as §1
# cyclin B/CDK1 enzyme = target: T4, cyclin B/CDK1 enzyme (Homo sapiens, UniProt P06493); experiment: CDK1 ELISA kinase assay (phospho-Rb ser 795 detection); type: biochemical; settings: In Vitro Enzyme Assays, read-out: CDK1 IC50
# T4 construct: purchased New England BioLabs; host or cells: Sf9 insect cells, recombinant baculovirus
# In short: as §1
# BT474 = experiment: Cytotoxicity assay (SRB), BT474; type: cell-based; settings: Homo sapiens, BT-474, 144 h, BT474 cells, SRB, 6 days; read-out: In Vitro Cellular Activity IC50 BT474
# In short: (§2)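 Overnight-seeded monolayers (4000–12000 cells/well by line) receive compound in 5% FBS medium at 37 °C, 7% CO2. After 3 d, or 6 d for BT474, cellular protein is fixed with cold TCA, stained with SRB and read at 540 nm against untreated wells.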
# LoVo = experiment: Cytotoxicity assay (SRB), LoVo; type: cell-based; settings: Homo sapiens, LoVo, 72 h, LoVo cells, SRB, three days; read-out: In Vitro Cellular Activity IC50 LOVO
# In short: as §2
# Cyclin D1/CDK6 = target: T5, Cyclin D1/CDK6 (Homo sapiens, UniProt Q00534); experiment: Cyclin D1/CDK6 Elisa; type: biochemical; settings: 200 μM ATP
# T5 construct: made in house; host or cells: Sf9 insect cells, recombinant baculovirus
# Experimental: Cyclin D1/CDK6 was expressed in insect cells (Sf9) infected with recombinant baculovirus and partially purified using ammonium sulfate fractionation. Test compounds were diluted in 20% DMSO/20 mM HEPES, pH 7.5 and serial dilutions were prepared (5 concentrations; 0.005-50 µM). High-binding ELISA microtiter plates (Costar) were coated with the kinase substrate (glutathione-S-transferase (GST) fusion of C-terminal fragment of the retinoblastoma susceptibility gene product (Rb). Non-specific binding sites were blocked with Superblock in Tris-buffered saline (TBS; Pierce). Kinase reactions contained the test inhibitor, 200 μM ATP, 0.5 mg/ml bovine serum albumin (BSA; Sigma), and 0.1 μl cyclin D1/cdk 6. Reaction volumes were adjusted to 30 μl with kinase assay buffer (50 mM HEPES, pH 7.5, 10 mM MgCl2, 5% glycerol, 10 mM 2-mercaptoethanol), and plates were incubated at 30° C. for 1 hour. Reactions were terminated by aspiration, and non-specific sites were blocked with blocking buffer (TBS containing 0.1% Tween-20 and 5% nonfat dry milk). Phoshporylation of the substrate was detected using phospho-Rb specific antibodies (ser-795) (Cell Signalling Technologies) and anti-rabbit IgG/horseradish peroxidase conjugates (Amersham Life Science) using TMB as substrate. Colourimetric reactions were stopped with 2N sulphuric acid and the absorbance was measured at 450 nm (Molecular Devices). IC50 values were determined from inhibition plots.
# T1 sequence (P08069 999-1274 limits assumed): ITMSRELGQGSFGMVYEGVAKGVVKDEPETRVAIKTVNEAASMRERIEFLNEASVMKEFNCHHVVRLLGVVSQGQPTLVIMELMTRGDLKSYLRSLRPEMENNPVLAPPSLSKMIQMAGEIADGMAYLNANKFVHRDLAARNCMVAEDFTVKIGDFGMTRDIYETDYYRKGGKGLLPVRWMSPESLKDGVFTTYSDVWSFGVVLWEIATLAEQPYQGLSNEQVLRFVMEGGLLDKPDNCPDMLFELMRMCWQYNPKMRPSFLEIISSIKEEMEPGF
# T5 sequence (Q00534 whole entry, species assumed): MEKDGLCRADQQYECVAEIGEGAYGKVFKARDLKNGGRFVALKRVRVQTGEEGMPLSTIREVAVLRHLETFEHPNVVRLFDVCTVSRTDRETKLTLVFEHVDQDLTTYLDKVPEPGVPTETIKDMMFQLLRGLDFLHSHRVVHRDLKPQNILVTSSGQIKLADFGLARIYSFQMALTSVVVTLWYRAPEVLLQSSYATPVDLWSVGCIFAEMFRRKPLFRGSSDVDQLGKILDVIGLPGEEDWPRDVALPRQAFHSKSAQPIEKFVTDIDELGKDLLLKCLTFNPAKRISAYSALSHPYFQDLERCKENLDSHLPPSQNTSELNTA
# T5 sequence (P24385 whole entry partner, species assumed): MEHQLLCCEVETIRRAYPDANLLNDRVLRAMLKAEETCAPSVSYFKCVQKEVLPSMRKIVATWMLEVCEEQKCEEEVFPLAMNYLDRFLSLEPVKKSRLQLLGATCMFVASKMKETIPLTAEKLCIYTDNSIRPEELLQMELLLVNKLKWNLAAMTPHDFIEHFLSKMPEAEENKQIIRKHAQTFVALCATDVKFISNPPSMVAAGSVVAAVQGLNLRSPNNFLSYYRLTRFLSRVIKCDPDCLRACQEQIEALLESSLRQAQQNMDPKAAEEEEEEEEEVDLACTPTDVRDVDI
# T4 sequence (P06493 whole entry): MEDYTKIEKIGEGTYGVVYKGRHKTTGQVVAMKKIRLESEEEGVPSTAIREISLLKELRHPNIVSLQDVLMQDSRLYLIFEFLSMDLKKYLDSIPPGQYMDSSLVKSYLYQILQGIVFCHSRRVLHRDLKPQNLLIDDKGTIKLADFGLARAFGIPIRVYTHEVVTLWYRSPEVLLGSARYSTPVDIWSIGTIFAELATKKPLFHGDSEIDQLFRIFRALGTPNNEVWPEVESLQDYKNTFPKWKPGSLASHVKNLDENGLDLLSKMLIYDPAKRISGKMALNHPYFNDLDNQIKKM
# T4 sequence (P14635 whole entry partner): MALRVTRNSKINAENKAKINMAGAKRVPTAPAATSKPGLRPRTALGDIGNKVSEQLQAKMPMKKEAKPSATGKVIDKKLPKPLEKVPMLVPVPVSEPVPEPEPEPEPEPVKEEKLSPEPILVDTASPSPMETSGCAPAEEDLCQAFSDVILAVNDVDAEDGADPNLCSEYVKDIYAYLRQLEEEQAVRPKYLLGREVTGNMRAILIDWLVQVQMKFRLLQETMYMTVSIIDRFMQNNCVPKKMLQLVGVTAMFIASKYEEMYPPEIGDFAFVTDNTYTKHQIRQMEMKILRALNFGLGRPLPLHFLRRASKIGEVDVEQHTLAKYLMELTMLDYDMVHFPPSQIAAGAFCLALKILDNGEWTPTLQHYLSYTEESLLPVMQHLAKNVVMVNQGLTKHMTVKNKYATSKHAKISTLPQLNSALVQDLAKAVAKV
# T2 sequence (P11802 whole entry, species assumed): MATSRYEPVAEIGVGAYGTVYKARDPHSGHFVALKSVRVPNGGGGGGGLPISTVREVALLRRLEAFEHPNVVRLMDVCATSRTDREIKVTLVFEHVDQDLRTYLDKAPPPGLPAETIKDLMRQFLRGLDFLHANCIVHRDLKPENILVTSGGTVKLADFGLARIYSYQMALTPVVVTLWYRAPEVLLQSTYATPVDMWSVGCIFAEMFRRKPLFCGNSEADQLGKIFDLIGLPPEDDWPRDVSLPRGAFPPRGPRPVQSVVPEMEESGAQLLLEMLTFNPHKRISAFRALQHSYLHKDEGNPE
# T2 sequence (P24385 whole entry partner, species assumed): as the sequence (P24385 whole entry partner, species assumed) above
structure (smiles),measurement,setting,value
"O=C1NC(=O)c2ccc(Nc3cccc(F)c3)cc2/C1=C/Nc1ccc(CN2CCCCC2)cc1 [Example 899, (4Z)-6-[(3-fluorophenyl)amino]-4-({[4-(piperidin-1-ylmethyl)phenyl]amino}methylene)isoquinoline-1,3(2H,4H)-dione]",IC50,IGF1-receptor kinase,3090 nM
"N#Cc1ccccc1Nc1ccc2c(c1)/C(=C/Nc1ccc(CN3CCCCC3)cc1)C(=O)NC2=O [Example 902, 2-{[(4Z)-1,3-dioxo-4-({[4-(piperidin-1-ylmethyl)phenyl]amino}methylene)-1,2,3,4-tetrahydroisoquinolin-6-yl]amino}benzonitrile]",IC50,IGF1-receptor kinase,3700 nM
"O=C1NC(=O)c2ccc(Nc3ccc(Cl)cc3)cc2/C1=C/Nc1ccc(CN2CCCCC2)cc1 [Example 890, (4Z)-6-[(4-chlorophenyl)amino]-4-({[4-(piperidin-1-ylmethyl)phenyl]amino}methylene)isoquinoline-1,3(2H,4H)-dione]",inhibition at 10 µM,IGF1-receptor kinase; 10 uM compound,47%
"Nc1cccc(Nc2ccc3c(c2)/C(=C/Nc2ccc(CN4CCCCC4)cc2)C(=O)NC3=O)c1 [Example 883, (4Z)-6-[(3-aminophenyl)amino]-4-({[4-(piperidin-1-ylmethyl)phenyl]amino}methylene)isoquinoline-1,3(2H,4H)-dione]",inhibition at 10 µM,IGF1-receptor kinase; 10 uM compound,33%
"CCOC(=O)c1ccc(Nc2ccc3c(c2)/C(=C/Nc2ccc(CN4CCCCC4)cc2)C(=O)NC3=O)cc1 [Example 903, ethyl 4-{[(4Z)-1,3-dioxo-4-({[4-(piperidin-1-ylmethyl)phenyl]amino}methylene)-1,2,3,4-tetrahydroisoquinolin-6-yl]amino}benzoate]",inhibition at 10 µM,IGF1-receptor kinase; 10 uM compound,45%
COc1cc(Nc2ccc3c(c2)/C(=C/Nc2ccc(CN4CCCCC4)cc2)C(=O)NC3=O)cc(C(F)(F)F)c1 [Example 900],Igfr % Inhibition at 10 uM,IGF1-receptor kinase; 10 uM compound,20%
"Cc1ccc(Nc2ccc3c(c2)/C(=C/Nc2ccc(CN4CCCCC4)cc2)C(=O)NC3=O)cc1 [Example 889, (4Z)-6-[(4-methylphenyl)amino]-4-({[4-(piperidin-1-ylmethyl)phenyl]amino}methylene)isoquinoline-1,3(2H,4H)-dione]",IC50,IGF1-receptor kinase,394 nM
"O=C1NC(=O)c2ccc(Nc3ccccc3)cc2/C1=C/Nc1ccc(CN2CCCCC2)cc1 [Example 887, (4Z)-6-anilino-4-({[4-(piperidin-1-ylmethyl)phenyl]amino}methylene)isoquinoline-1,3(2H,4H)-dione]",IC50,IGF1-receptor kinase,208 nM
"O=C1NC(=O)c2ccc(Nc3cccc(C(F)(F)F)c3)cc2/C1=C/Nc1ccc(CN2CCCCC2)cc1 [Example 886, (4Z)-4-({[4-(piperidin-1-ylmethyl)phenyl]amino}methylene)-6-{[3-(trifluoromethyl)phenyl]amino}isoquinoline-1,3(2H,4H)-dione]",inhibition at 10 µM,IGF1-receptor kinase; 10 uM compound,32%
CC(=O)c1cccc(Nc2ccc3c(c2)/C(=C/Nc2ccc(N4CCN(C)CC4)cc2)C(=O)NC3=O)c1 [Example 881],IC50,IGF1-receptor kinase,361 nM
"COc1cccc(Nc2ccc3c(c2)/C(=C/Nc2ccc(CN(C)C)cc2)C(=O)NC3=O)c1 [Example 907, (4Z)-4-[({4-[(dimethylamino)methyl]phenyl}amino)methylene]-6-[(3-methoxyphenyl)amino]isoquinoline-1,3(2H,4H)-dione]",IC50,IGF1-receptor kinase,1390 nM
"CN1CCN(c2ccc(N/C=C3\C(=O)NC(=O)c4ccc(I)cc43)cc2)CC1 [Example 81, (4Z)-6-Iodo-4-({[4-(4-methylpiperazin-1-yl)phenyl]amino}methylene)isoquinoline-1,3(2H,4H)-dione]",IC50,cyclin D1/cdk 4 enzyme,480 nM
same,IC50,cyclin E/CDK2 enzyme,> 50000 nM
same,IC50,cyclin B/CDK1 enzyme,> 50000 nM
same,IC50,BT474,2800 nM
same,IC50,LoVo,5100 nM
same,IC50,Cyclin D1/CDK6,0.1 µM
"O=C1NC(=O)c2ccc(Nc3ccc4c(c3)CCC4)cc2/C1=C/Nc1ccc(CN2CCCCC2)cc1 [Example 895, (4Z)-6-(2,3-dihydro-1H-inden-5-ylamino)-4-({[4-(piperidin-1-ylmethyl)phenyl]amino}methylene)isoquinoline-1,3(2H,4H)-dione]",IC50,IGF1-receptor kinase,7220 nM
"CCN(CC)Cc1ccc(N/C=C2\C(=O)NC(=O)c3ccc(Nc4ccc(C)cc4)cc32)cc1 [Example 911, (4Z)-4-[({4-[(diethylamino)methyl]phenyl}amino)methylene]-6-[(4-methylphenyl)amino]isoquinoline-1,3(2H,4H)-dione]",IC50,IGF1-receptor kinase,1160 nM
"COc1cccc(Nc2ccc3c(c2)/C(=C/Nc2ccc(CN4CCCCC4)cc2)C(=O)NC3=O)c1 [Example 892, (4Z)-6-[(3-methoxyphenyl)amino]-4-({[4-(piperidin-1-ylmethyl)phenyl]amino}methylene)isoquinoline-1,3(2H,4H)-dione]",IC50,IGF1-receptor kinase,954 nM
"N#Cc1cccc(Nc2ccc3c(c2)/C(=C/Nc2ccc(CN4CCCCC4)cc2)C(=O)NC3=O)c1 [Example 893, 3-{[(4Z)-1,3-dioxo-4-({[4-(piperidin-1-ylmethyl)phenyl]amino}methylene)-1,2,3,4-tetrahydroisoquinolin-6-yl]amino}benzonitrile]",IC50,IGF1-receptor kinase,708 nM
"Cc1cccc(Nc2ccc3c(c2)/C(=C/Nc2ccc(CN4CCCCC4)cc2)C(=O)NC3=O)c1 [Example 884, (4Z)-6-[(3-methylphenyl)amino]-4-({[4-(piperidin-1-ylmethyl)phenyl]amino}methylene)isoquinoline-1,3(2H,4H)-dione]",inhibition at 10 µM,IGF1-receptor kinase; 10 uM compound,20%
"CC(=O)c1cccc(Nc2ccc3c(c2)/C(=C/Nc2ccc(CN4CCCCC4)cc2)C(=O)NC3=O)c1 [Example 885, (4Z)-6-[(3-acetylphenyl)amino]-4-({[4-(piperidin-1-ylmethyl)phenyl]amino}methylene)isoquinoline-1,3(2H,4H)-dione]",IC50,IGF1-receptor kinase,360 nM
